# Source: patent publication US20160000071A1, “PHOTODEGRADABLE, BIOCOMPATIBLE AND EFFICIENT NANO-ENCAPSULATED FORMULATION” (priority 2014, published 2016)
# Marks after values point to notes of the source that are not given here.
# How the values were obtained:
# [1] = test system: newly-ecdysed fifth instar larvae of G. pyloalis; test: Leaf dip bioassay; format: in vivo, Glyphodes pyloalis Walker; settings: for mortality at 50 ppm / mortality at 80 ppm / mortality at 126 ppm / mortality at 200 ppm / mortality at 316 ppm / mortality at 500 ppm: Glyphodes pyloalis, foliar
# Procedure: (§1) The insects used in the present application is Glyphodes pyloalis Walker (Lepidoptera: Pyralidae) which was collected from infested mulberry orchards in the vicinity of Rasht, Iran. Mass rearing of insects was carried out in the laboratory under controlled conditions at 25±1° C., 70±5% RH and 16:8 L:D. Newly-ecdysed fifth instar larvae of G. pyloalis were used for the bioassay experiments. The Glyphodes pyloalis Walker hereinafter is referred to as G. pyloalis.
# The toxicity of the encapsulated imidacloprid diluted in water for the newly-ecdysed fifth instar larvae of G. pyloalis was evaluated using leaf dip bioassay. The technical imidacloprid was dissolved in acetone and diluted to generate 6 serial dilutions with distilled water. Mulberry leaf discs with diameters of 3.5 cm were prepared, so that each petiole was placed in a vial containing water for providing moisture to the leaf discs for several days. These discs were then immersed in the dilutions for 45 seconds. Mortality was assessed after the treated larvae were maintained at 25±1° C., 70±10 R.H. for 24, 48, 72, 96 and 120 hours.
# [2] = test system: newly ecdysed fifth instar larvae of G. pyloalis; test: Topical bioassay; format: in vivo, Glyphodes pyloalis Walker; settings: Glyphodes pyloalis
# Procedure: as §1
# To determine the efficacy of the encapsulated nano-IMI prepared using ethanol, a topical bioassay was performed. In the preliminary tests, 5 concentrations of bulk and nano-IMI were tested. […] Fifty larvae per concentration were used for all experiments and each experiment was replicated 4 times; 1 μl of the desired concentration was topically applied to the metathoracic tergum. The controls received 1 μl of ethanol in the same way. The treated larvae were allowed to eat fresh leaves. After 24, 48, 72 and 96 h, the numbers of dead larvae were recorded.
# [3] = Photocatalytic degradation of indoxacarb under UV light; format: physicochemical
# [4] = Photo degradation of indoxacarb in the batch reactor under natural light
smiles,measurement,setting,value
O=[N+]([O-])NC1=NCCN1Cc1ccc(Cl)nc1 [Imidacloprid],mortality at 50 ppm,[1]; 24 h after treatment,2.5 ± 2%
same,mortality at 50 ppm,[1]; 48 h after treatment,15.6%
same,mortality at 50 ppm,[1]; 72 h after treatment,27%
same,mortality at 50 ppm,[1]; 96 h after treatment,42.5%
same,mortality at 50 ppm,[1]; 120 h after treatment,46.2 ± 2.39%
same,mortality at 80 ppm,[1]; 24 h after treatment,8.82%
same,mortality at 80 ppm,[1]; 48 h after treatment,23.8%
same,mortality at 80 ppm,[1]; 72 h after treatment,39.6 ± 3.33%
same,mortality at 80 ppm,[1]; 96 h after treatment,57.8 ± 3.17%
same,mortality at 80 ppm,[1]; 120 h after treatment,58.8 ± 3.75%
same,mortality at 126 ppm,[1]; 24 h after treatment,21.9 ± 3.07%
same,mortality at 126 ppm,[1]; 48 h after treatment,43.8 ± 2.39%
same,mortality at 126 ppm,[1]; 72 h after treatment,58.6 ± 3.41%
same,mortality at 126 ppm,[1]; 96 h after treatment,76.2 ± 3.17%
same,mortality at 126 ppm,[1]; 120 h after treatment,78.8 ± 3.75%
same,mortality at 200 ppm,[1]; 24 h after treatment,34.2 ± 2.09%
same,mortality at 200 ppm,[1]; 48 h after treatment,55%
same,mortality at 200 ppm,[1]; 72 h after treatment,71.7 ± 2.04%
same,mortality at 200 ppm,[1]; 96 h after treatment,78.8 ± 2.39%
same,mortality at 200 ppm,[1]; 120 h after treatment,80%
same,mortality at 316 ppm,[1]; 24 h after treatment,39.2 ± 4.13%
same,mortality at 316 ppm,[1]; 48 h after treatment,60%
same,mortality at 316 ppm,[1]; 72 h after treatment,75%
same,mortality at 316 ppm,[1]; 96 h after treatment,84.2 ± 3.37%
same,mortality at 316 ppm,[1]; 120 h after treatment,86.2 ± 2.39%
same,mortality at 500 ppm,[1]; 24 h after treatment,57.5 ± 2.04%
same,mortality at 500 ppm,[1]; 48 h after treatment,77.6 ± 4%
same,mortality at 500 ppm,[1]; 72 h after treatment,86.1 ± 1.63%
same,mortality at 500 ppm,[1]; 96 h after treatment,100%
same,mortality at 500 ppm,[1]; 120 h after treatment,100%
same,mortality at 22 ppm,[2]; 24 h after treatment,18.1%
same,mortality at 22 ppm,[2]; 48 h after treatment,20%
same,mortality at 22 ppm,[2]; 72 h after treatment,22%
same,mortality at 22 ppm,[2]; 96 h after treatment,24%
same,mortality at 32 ppm,[2]; 24 h after treatment,33%
same,mortality at 32 ppm,[2]; 48 h after treatment,35%
same,mortality at 32 ppm,[2]; 72 h after treatment,36.5%
same,mortality at 32 ppm,[2]; 96 h after treatment,38.2%
same,mortality at 47.5 ppm,[2]; 24 h after treatment,50%
same,mortality at 47.5 ppm,[2]; 48 h after treatment,52.1%
same,mortality at 47.5 ppm,[2]; 72 h after treatment,54%
same,mortality at 47.5 ppm,[2]; 96 h after treatment,56%
same,mortality at 60 ppm,[2]; 24 h after treatment,76%
same,mortality at 60 ppm,[2]; 48 h after treatment,78%
same,mortality at 60 ppm,[2]; 72 h after treatment,80.4%
same,mortality at 60 ppm,[2]; 96 h after treatment,82%
"COC(=O)N(C(=O)N1CO[C@@]2(C(=O)OC)Cc3cc(Cl)ccc3C2=N1)c1ccc(OC(F)(F)F)cc1 [Indoxacarb, lndoxacarb]",% mortality,"[1]; 0.25 ppm, 24 h after treatment",21 ± 2.91^g %
same,% mortality,"[1]; 0.25 ppm, 72 h after treatment",56.4 ± 8.84^bcdef %
same,% mortality,"[1]; 0.25 ppm, 96 h after treatment",61 ± 8.73^bcdef %
same,% mortality,"[1]; 0.25 ppm, 120 h after treatment",62 ± 7.62^bcdef %
same,% mortality,"[1]; 0.45 ppm, 24 h after treatment",34 ± 10.29^efg %
same,% mortality,"[1]; 0.45 ppm, 48 h after treatment",47.9 ± 10^cdefg %
same,% mortality,"[1]; 0.45 ppm, 72 h after treatment",59 ± 19.97^bcdef %
same,% mortality,"[1]; 0.45 ppm, 96 h after treatment",63 ± 12.32^bcdef %
same,% mortality,"[1]; 0.45 ppm, 120 h after treatment",64 ± 12.67^bcdef %
same,% mortality,"[1]; 0.82 ppm, 24 h after treatment",34.32 ± 7.45^efg %
same,% mortality,"[1]; 0.82 ppm, 48 h after treatment",51.5 ± 9.25^cdefg %
same,% mortality,"[1]; 0.82 ppm, 72 h after treatment",63.58 ± 7.84^bcdef %
same,% mortality,"[1]; 0.82 ppm, 96 h after treatment",76 ± 2.73^abcd %
same,% mortality,"[1]; 0.82 ppm, 120 h after treatment",77 ± 2.23^abcd %
same,% mortality,"[1]; 1.5 ppm, 24 h after treatment",44.16 ± 8.22^defg %
same,% mortality,"[1]; 1.5 ppm, 48 h after treatment",62 ± 2.23^bcdef %
same,% mortality,"[1]; 1.5 ppm, 72 h after treatment",74.4 ± 2.58^abcd %
same,% mortality,"[1]; 1.5 ppm, 96 h after treatment",83 ± 2.23^abc %
same,% mortality,"[1]; 1.5 ppm, 120 h after treatment",83.6 ± 2.07^abc %
same,% mortality,"[1]; 2.8 ppm, 24 h after treatment",51.32 ± 8.9^cdefg %
same,% mortality,"[1]; 2.8 ppm, 48 h after treatment",68.82 ± 5.05^abcde %
same,% mortality,"[1]; 2.8 ppm, 72 h after treatment",76.66 ± 4.27^abcd %
same,% mortality,"[1]; 2.8 ppm, 96 h after treatment",88.32 ± 6.55^ab %
same,% mortality,"[1]; 2.8 ppm, 120 h after treatment",88.4 ± 6.57^ab %
same,% mortality,"[1]; 4 ppm, 24 h after treatment",55 ± 3.87^bcdefg %
same,% mortality,"[1]; 4 ppm, 48 h after treatment",71.98 ± 2.92^abcd %
same,% mortality,"[1]; 4 ppm, 72 h after treatment",88.32 ± 7.57^ab %
same,% mortality,"[1]; 4 ppm, 96 h after treatment",100%
same,% mortality,"[1]; 4 ppm, 120 h after treatment",100 ± 0^a %
same,% degradation of indoxacarb,"[3]; 10 ppm, 1 h",2.3%
same,% degradation of indoxacarb,"[3]; 10 ppm, 3 h",7.44%
same,% degradation of indoxacarb,"[3]; 10 ppm, 6 h",10.26%
same,% degradation of indoxacarb,"[3]; 10 ppm, 18 h",13.07%
same,% degradation of indoxacarb,"[3]; 20 ppm, 1 h",6.24%
same,% degradation of indoxacarb,"[3]; 20 ppm, 3 h",12.49%
same,% degradation of indoxacarb,"[3]; 20 ppm, 6 h",18.9%
same,% degradation of indoxacarb,"[3]; 20 ppm, 18 h",22.03%
same,% degradation of indoxacarb,"[3]; 30 ppm, 1 h",9.32%
same,% degradation of indoxacarb,"[3]; 30 ppm, 3 h",13.07%
same,% degradation of indoxacarb,"[3]; 30 ppm, 6 h",23.34%
same,% degradation of indoxacarb,"[3]; 30 ppm, 18 h",25.21%
same,% degradation of indoxacarb,"[3]; 40 ppm, 1 h",11.47%
same,% degradation of indoxacarb,"[3]; 40 ppm, 3 h",15.04%
same,% degradation of indoxacarb,"[3]; 40 ppm, 6 h",24.26%
same,% degradation of indoxacarb,"[3]; 40 ppm, 18 h",25.39%
same,% degradation of indoxacarb,"[3]; 50 ppm, 1 h",9.23%
same,% degradation of indoxacarb,"[3]; 50 ppm, 3 h",13.34%
same,% degradation of indoxacarb,"[3]; 50 ppm, 6 h",21.02%
same,% degradation of indoxacarb,"[3]; 50 ppm, 18 h",21.02%
same,maximum amount of indoxacarb removed / degraded,"[3]; after approximately 18 h, over all concentrations (10-50 ppm)",about 25%
same,% photo degradation of indoxacarb,"[4]; 10 ppm, 2 d",16.33%
same,% photo degradation of indoxacarb,"[4]; 10 ppm, 4 d",19.02%
same,% photo degradation of indoxacarb,"[4]; 10 ppm, 6 d",21.21%
same,% photo degradation of indoxacarb,"[4]; 10 ppm, 8 d",23.4%
same,% photo degradation of indoxacarb,"[4]; 10 ppm, 10 d",30.47%
same,% photo degradation of indoxacarb,"[4]; 20 ppm, 2 d",22.26%
same,% photo degradation of indoxacarb,"[4]; 20 ppm, 4 d",23.47%
same,% photo degradation of indoxacarb,"[4]; 20 ppm, 6 d",25.17%
same,% photo degradation of indoxacarb,"[4]; 20 ppm, 8 d",29.28%
same,% photo degradation of indoxacarb,"[4]; 20 ppm, 10 d",33.4%
same,% photo degradation of indoxacarb,"[4]; 30 ppm, 2 d",26.23%
same,% photo degradation of indoxacarb,"[4]; 30 ppm, 4 d",29.2%
same,% photo degradation of indoxacarb,"[4]; 30 ppm, 6 d",31.18%
same,% photo degradation of indoxacarb,"[4]; 30 ppm, 8 d",33.16%
same,% photo degradation of indoxacarb,"[4]; 30 ppm, 10 d",36.13%
same,% photo degradation of indoxacarb,"[4]; 40 ppm, 2 d",22.26%
same,% photo degradation of indoxacarb,"[4]; 40 ppm, 4 d",29.28%
same,% photo degradation of indoxacarb,"[4]; 40 ppm, 6 d",31.34%
same,% photo degradation of indoxacarb,"[4]; 40 ppm, 8 d",36.3%
same,% photo degradation of indoxacarb,"[4]; 40 ppm, 10 d",39.21%
same,% photo degradation of indoxacarb,"[4]; 50 ppm, 2 d",21.23%
same,% photo degradation of indoxacarb,"[4]; 50 ppm, 4 d",26.35%
same,% photo degradation of indoxacarb,"[4]; 50 ppm, 6 d",30.18%
same,% photo degradation of indoxacarb,"[4]; 50 ppm, 8 d",32.23%
same,% photo degradation of indoxacarb,"[4]; 50 ppm, 10 d",37.38%
